Measured values reported in the NIST ThermoML archive (doi:10.1021/je500513b).

Test: mn = molality of the nth substance listed, in mol/kg
Details: for surface tension liquid-gas: Pendant drop shape; for electrical conductivity: 100 kPa, Liquid, Mettler Toledo inLab 710

CCCCCCCCCCCCCC[N+](C)(C)CCCCCC[N+](C)(C)CCCCCCCCCCCCCC.[Br-].[Br-] + O
Details	electrical conductivity, 298.15 K [S/m]	electrical conductivity, 303.15 K [S/m]	electrical conductivity, 308.15 K [S/m]	electrical conductivity, 313.15 K [S/m]	electrical conductivity, 318.15 K [S/m]	electrical conductivity, 323.15 K [S/m]	surface tension liquid-gas, 298.15 K [mN/m]
m1 = 1e-05	–	–	–	–	–	–	61.8
m1 = 2e-05	–	–	–	–	–	–	56.01
m1 = 3e-05	–	–	–	–	–	–	52.48
m1 = 4e-05	–	–	–	–	–	–	50.87
m1 = 5e-05	–	–	–	–	–	–	49.03
m1 = 6e-05	–	–	–	–	–	–	47.1
m1 = 7e-05	–	–	–	–	–	–	45.98
m1 = 8e-05	–	–	–	–	–	–	43.05
m1 = 0.0001	–	–	–	–	–	–	42.1
m1 = 0.000111	0.00247	0.00278	0.00326	0.00342	0.00369	0.00384	–
m1 = 0.000115	0.00256	–	–	–	–	–	–
m1 = 0.000118	–	0.00293	0.00339	0.00353	0.00387	0.004	–
m1 = 0.00012	0.00265	–	–	–	–	–	41.5
m1 = 0.000125	0.00273	0.00311	0.00353	0.00364	0.00407	0.00426	–
m1 = 0.00013	0.0028	–	–	–	–	–	–
m1 = 0.000133	–	0.00327	0.00369	0.00386	0.00431	0.00452	–
m1 = 0.000136	0.00289	–	–	–	–	–	–
m1 = 0.00014	–	–	–	–	–	–	40.55
m1 = 0.000143	0.003	0.00347	0.00386	0.00411	0.00454	0.00482	–
m1 = 0.00015	0.00312	0.00361	0.004	0.00429	0.00478	0.00504	–
m1 = 0.000158	0.00326	0.00375	0.00418	0.00449	0.00503	0.00526	–
m1 = 0.000167	0.00338	0.00391	0.00438	0.00467	0.00529	0.00554	–
m1 = 0.00017	–	–	–	–	–	–	39.84
m1 = 0.000176	0.00352	0.00407	0.00458	0.00494	0.00559	0.00586	–
m1 = 0.000188	0.00365	0.00424	0.00478	0.00523	0.00588	0.00618	–
m1 = 0.000197	–	0.00435	0.00493	0.00541	0.00613	0.00647	–
m1 = 0.0002	0.0038	–	–	–	–	–	39.13
m1 = 0.000207	–	0.0045	0.00512	0.00562	0.00638	0.00676	–
m1 = 0.000214	0.00396	–	–	–	–	–	–
m1 = 0.000218	–	0.00464	0.00529	0.00582	0.00665	0.00702	–
m1 = 0.000231	0.00413	0.00479	0.00548	0.00602	0.00694	0.00736	–
m1 = 0.00024	0.00423	0.00491	0.0056	0.00617	0.00714	0.0076	–
m1 = 0.00025	0.00434	0.00502	0.00573	0.00633	0.00734	0.00784	–
m1 = 0.000261	0.00445	0.00513	0.00587	0.00647	0.00755	0.00808	–
m1 = 0.000273	0.00456	0.00524	0.00604	0.00663	0.00777	0.00832	–
m1 = 0.000286	0.00469	0.00539	0.00621	0.00681	0.008	0.00856	–
m1 = 0.0003	0.00481	0.00556	0.00639	0.00704	0.00822	0.0088	38.57
m1 = 0.0004	–	–	–	–	–	–	38.4

CCCCCCCCCCCC[N+](C)(C)CCCC[N+](C)(C)CCCCCCCCCCCC.[Br-].[Br-] + O
Details	electrical conductivity [S/m]	surface tension liquid-gas [mN/m]
298.15 K, m1 = 0.0001	–	60.26
298.15 K, m1 = 0.0002	–	54.58
298.15 K, m1 = 0.0004	–	47.36
298.15 K, m1 = 0.0006	–	42.42
298.15 K, m1 = 0.0007	–	40.35
298.15 K, m1 = 0.0008	–	38.82
298.15 K, m1 = 0.00085	–	38.23
298.15 K, m1 = 0.0009	–	36.43
298.15 K, m1 = 0.001	–	35.92
298.15 K, m1 = 0.0011	–	35.45
298.15 K, m1 = 0.0012	–	35.19
298.15 K, m1 = 0.0015	–	35.13
298.15 K, m1 = 0.002	–	35.1
298.15 K, m1 = 0.56	1.13	–
298.15 K, m1 = 0.59	1.2	–
298.15 K, m1 = 0.63	1.28	–
298.15 K, m1 = 0.67	1.36	–
298.15 K, m1 = 0.7	1.42	–
298.15 K, m1 = 0.74	1.5	–
298.15 K, m1 = 0.78	1.57	–
298.15 K, m1 = 0.83	1.66	–
298.15 K, m1 = 0.87	1.73	–
298.15 K, m1 = 0.91	1.79	–
298.15 K, m1 = 0.95	1.86	–
298.15 K, m1 = 1	1.93	–
298.15 K, m1 = 1.05	2	–
298.15 K, m1 = 1.11	2.06	–
298.15 K, m1 = 1.18	2.13	–
298.15 K, m1 = 1.25	2.2	–
298.15 K, m1 = 1.33	2.25	–
298.15 K, m1 = 1.43	2.32	–
298.15 K, m1 = 1.54	2.39	–
298.15 K, m1 = 1.67	2.46	–
298.15 K, m1 = 1.82	2.53	–
298.15 K, m1 = 2	2.63	–
303.15 K, m1 = 0.57	1.32	–
303.15 K, m1 = 0.63	1.43	–
303.15 K, m1 = 0.67	1.53	–
303.15 K, m1 = 0.7	1.61	–
303.15 K, m1 = 0.74	1.69	–
303.15 K, m1 = 0.78	1.78	–
303.15 K, m1 = 0.83	1.86	–
303.15 K, m1 = 0.87	1.93	–
303.15 K, m1 = 0.91	2.01	–
303.15 K, m1 = 0.95	2.1	–
303.15 K, m1 = 1	2.18	–
303.15 K, m1 = 1.05	2.25	–
303.15 K, m1 = 1.11	2.34	–
303.15 K, m1 = 1.18	2.41	–
303.15 K, m1 = 1.25	2.47	–
303.15 K, m1 = 1.33	2.56	–
303.15 K, m1 = 1.43	2.63	–
303.15 K, m1 = 1.54	2.72	–
303.15 K, m1 = 1.67	2.8	–
303.15 K, m1 = 1.74	2.84	–
303.15 K, m1 = 2	2.99	–
308.15 K, m1 = 0.56	1.42	–
308.15 K, m1 = 0.59	1.5	–
308.15 K, m1 = 0.63	1.59	–
308.15 K, m1 = 0.67	1.69	–
308.15 K, m1 = 0.7	1.76	–
308.15 K, m1 = 0.74	1.85	–
308.15 K, m1 = 0.78	1.95	–
308.15 K, m1 = 0.83	2.06	–
308.15 K, m1 = 0.87	2.14	–
308.15 K, m1 = 0.91	2.22	–
308.15 K, m1 = 0.95	2.32	–
308.15 K, m1 = 1	2.41	–
308.15 K, m1 = 1.05	2.51	–
308.15 K, m1 = 1.11	2.62	–
308.15 K, m1 = 1.18	2.71	–
308.15 K, m1 = 1.25	2.8	–
308.15 K, m1 = 1.33	2.9	–
308.15 K, m1 = 1.43	2.98	–
308.15 K, m1 = 1.54	3.08	–
308.15 K, m1 = 1.67	3.16	–
308.15 K, m1 = 1.82	3.27	–
308.15 K, m1 = 2	3.39	–
313.15 K, m1 = 0.62	1.66	–
313.15 K, m1 = 0.66	1.78	–
313.15 K, m1 = 0.7	1.91	–
313.15 K, m1 = 0.74	2	–
313.15 K, m1 = 0.78	2.12	–
313.15 K, m1 = 0.83	2.24	–
313.15 K, m1 = 0.89	2.38	–
313.15 K, m1 = 0.95	2.54	–
313.15 K, m1 = 1	2.64	–
313.15 K, m1 = 1.05	2.76	–
313.15 K, m1 = 1.11	2.87	–
313.15 K, m1 = 1.18	3.01	–
313.15 K, m1 = 1.25	3.13	–
313.15 K, m1 = 1.33	3.24	–
313.15 K, m1 = 1.43	3.34	–
313.15 K, m1 = 1.54	3.46	–
313.15 K, m1 = 1.67	3.58	–
313.15 K, m1 = 1.74	3.64	–
313.15 K, m1 = 1.82	3.7	–
313.15 K, m1 = 1.9	3.77	–
313.15 K, m1 = 2	3.84	–
318.15 K, m1 = 0.61	1.79	–
318.15 K, m1 = 0.65	1.91	–
318.15 K, m1 = 0.69	2.05	–
318.15 K, m1 = 0.74	2.19	–
318.15 K, m1 = 0.78	2.33	–
318.15 K, m1 = 0.83	2.45	–
318.15 K, m1 = 0.89	2.61	–
318.15 K, m1 = 0.95	2.78	–
318.15 K, m1 = 1	2.9	–
318.15 K, m1 = 1.05	3.04	–
318.15 K, m1 = 1.11	3.18	–
318.15 K, m1 = 1.18	3.33	–
318.15 K, m1 = 1.25	3.47	–
318.15 K, m1 = 1.33	3.61	–
318.15 K, m1 = 1.43	3.76	–
318.15 K, m1 = 1.54	3.91	–
318.15 K, m1 = 1.67	4.04	–
318.15 K, m1 = 1.74	4.11	–
318.15 K, m1 = 1.82	4.19	–
318.15 K, m1 = 1.9	4.26	–
318.15 K, m1 = 2	4.32	–
323.15 K, m1 = 0.57	1.86	–
323.15 K, m1 = 0.61	1.97	–
323.15 K, m1 = 0.65	2.09	–
323.15 K, m1 = 0.69	2.24	–
323.15 K, m1 = 0.74	2.4	–
323.15 K, m1 = 0.78	2.55	–
323.15 K, m1 = 0.83	2.72	–
323.15 K, m1 = 0.89	2.87	–
323.15 K, m1 = 0.95	3.03	–
323.15 K, m1 = 1	3.16	–
323.15 K, m1 = 1.05	3.31	–
323.15 K, m1 = 1.11	3.47	–
323.15 K, m1 = 1.18	3.66	–
323.15 K, m1 = 1.25	3.84	–
323.15 K, m1 = 1.33	4.03	–
323.15 K, m1 = 1.43	4.21	–
323.15 K, m1 = 1.54	4.38	–
323.15 K, m1 = 1.6	4.48	–
323.15 K, m1 = 1.67	4.57	–
323.15 K, m1 = 1.74	4.65	–
323.15 K, m1 = 1.82	4.73	–
323.15 K, m1 = 1.9	4.81	–
323.15 K, m1 = 2	4.89	–
